From patent US11382884B2, “Method for reducing lung infection” (priority 2017, dated 2022)
Read-outs that look alike come from different tables or passages of the source.

How the values were obtained:
[1] = in vivo; cited from earlier work
[2] = tested on: P. aeruginosa; conditions: after two weeks of treatment, 300 mg EDTA/day nebulised with tobramycin; sputum; FIG. 25
Excerpt: Patients were monitored for a further four weeks, bringing the total study time to 10 weeks.

[3] = tested on: P. aeruginosa; conditions: in vivo; cited from earlier work
[4] = Method: (§1) Subjects are then discharged and treatment continued twice a day for four weeks. Subjects are monitored for a further four weeks, bringing the total study time to 10 weeks. Sputum is collected by induction with nebulised 3% hypertonic saline at 8-10 L/min for […]. Samples are collected prior to treatment, and at 2, 6 and 10 weeks, processed according to the relevant protocol and stored at −80° C.
Expectorated sputum is stored in RNAlater, total RNA is extracted using a Qiagen RNEasy® or similar extraction kit, converted into cDNA, and inflammatory markers are monitored using qPCR as described by Sivaneson et al. (Sivaneson, M., Mikkelsen, H., Ventre, I., Bordi, C., and Filloux, A. (2011). Two-component regulatory systems in Pseudomonas aeruginosa: an intricate network mediating fimbrial and efflux pump gene expression. Mol Microbiol 79, 1353-1366) and quantified relative to known housekeeping genes, such as actin and/or GAPDH.
(§2) Expectorated sputum is frozen directly without processing and assayed for inflammatory markers as above. As a measure of structural damage, levels of matrix metalloproteinases (MMPs) and tissue inhibitors of metalloproteinases (TIMPs) are measured using gelatin zymography and immunoassays, respectively, as previously described (Gaggar et al., Eur Respir J. 2011 38(3): 721-727; Garratt et al., Eur Respir J. 2015 46(2):384-94). The amount of iron in the sputum is quantified by ICP-MS as previously described (Hunter et al., MBio 2013, 4(4):1-8). The amount of iron-binding proteins is assessed using immunoassays. Oxidative stress is assessed by measuring glutathione (GSSG and GSH) using immunoassays as previously described (Kettle et al., Eur Respir J. 2014 44(1):122-9).

[5] = remark: listed apart in the source
Method: A single centre, randomised, double blind, crossover study of cystic fibrosis subjects is carried out. Subjects are randomised for treatment with inhaled CaEDTA or saline (placebo) 2-4 times a day for two weeks.
Iron levels, inflammatory markers, MMP/TIMP and FEV1 are monitored as above. Myeloperoxidase activity are also assayed as a measure of neutrophilic inflammation as previously described (Gaggar et al., 2011). 3-chlorotyrosine is measured as a biomarker of the potent oxidant hypochlorous acid. Levels are measured using stable isotope dilution gas chromatography with mass spectrometry (Gaggar et al., 2011). Protein carbonyls are measured as an indicator of ROS using a commercial immunoassay kit (Gaggar et al., 2011).

[6] = remark: listed apart in the source
Method: as §1
Expectorated sputum is stored in RNAlater®, total RNA is extracted using a Qiagen RNEasy® or similar extraction kit, converted into cDNA, and inflammatory markers are monitored using qPCR as described by Sivaneson et al. (Sivaneson, M., Mikkelsen, H., Ventre, I., Bordi, C., and Filloux, A. (2011). Two-component regulatory systems in Pseudomonas aeruginosa: an intricate network mediating fimbrial and efflux pump gene expression. Mol Microbiol 79, 1353-1366) and quantified relative to known housekeeping genes, such as actin and/or GAPDH.
as §2, with “MBio. 2013” for “MBio 2013,”

[7] = in vivo; cited from earlier work; remark: listed apart in the source
[8] = remark: listed apart in the source
Method: Subjects were then discharged and treatment was continued twice a day for four weeks. Patients were monitored for a further four weeks, bringing the total study time to 10 weeks. At each study visit, lung function was measured by spirometry. Data was recorded as the best of three attempts, and results were expressed as % predicted.

[9] = remark: listed apart in the source
Method: Subjects with CF who need treatment with dry powder tobramycin are allocated into four cohorts and receive 112 mg dry powder twice a day for 28 days. In addition, Cohort 1 (patients>18 years) receives ascending doses of dry powder CaEDTA (37.5 mg BID for 1 week; 75 mg BID for 2 weeks, 150 mg BID for 1 week). Patients in cohort 2 (>18 years) receive CaEDTA (37.5 mg BID for 1 week; 75 BID for 2 weeks; 75 mg QID for 1 week). Patients in cohort 3 (12-18 years) receive CaEDTA (37.5 mg BID for 1 week; 75 mg BID for 2 weeks, 150 mg BID for 1 week. Finally, a control cohort receives tobramycin alone for 28 days.
Sputum samples are collected weekly and assessed for markers of infection and inflammation. Bacteria are monitored by sputum colony counts. As a measure of structural damage, levels of matrix metalloproteinases (MMPs) and tissue inhibitors of metalloproteinases (TIMPs) are measured using gelatin zymography and immunoassays, respectively, as previously described (Gaggar et al., Eur Respir J. 2011 38(3): 721-727; Garratt et al., Eur Respir J. 2015 46(2):384-94). The amount of iron in the sputum is quantified by ICP-MS as previously described (Hunter et al., 2013). The amount of iron-binding proteins is assessed using immunoassays. Myeloperoxidase activity is also assayed as a measure of neutrophilic inflammation as previously described (Gaggar et al., 2011). 3-chlorotyrosine is measured as a biomarker of the potent oxidant hypochlorous acid. Levels are measured using stable isotope dilution gas chromatography with mass spectrometry (Gaggar et al., 2011). Protein carbonyls are measured as an indicator of reactive oxygen species (ROS) using a commercial immunoassay kit (Gaggar et al., 2011). Oxidative stress is assessed by measuring glutathione (GSSG and GSH) using immunoassays as previously described (Kettle et al., 2014). Gene expression of inflammatory and oxidative stress markers (e.g. IL-8, IL-6, TNFa) will also be monitored by Nanostring, and proteins will be measured by ELISA. Oxidative stress can also be measured via metabolites, such as molondialdehyde (colorimetric assay) or 8-isoprostane (ELISA). Iron will be measured by elemental analysis using laser ablation-inductively coupled plasma-mass spectrometry (LA-ICP-MS).

[10] = EDTA group compared with placebo group

## O=C(O)CN(CCN(CC(=O)O)CC(=O)O)CC(=O)O [EDTA, ethylene diamine tetraacetic acid]
[1]
  effect on FEV1: no effect on FEV1
[2]
  reduction in colony counts: > 400 fold
[3]
  treatment of bacterial infections by inhaled EDTA alone: does not treat bacterial infections
[4]; [10]
  gene expression of inflammatory markers (qPCR, sputum): mean reduction
  inflammatory markers in sputum: reduction
[4]; compared with placebo (carrier only)
  FEV1: increase
[4]; especially MMP-9 and TIMP-1
  balance between MMPs and TIMPs: change in the balance
[4]; human, in vivo
  iron levels in sputum: decrease
[5]; compared with placebo
  MMP/TIMP balance: altered
  levels of inflammatory markers: reduced levels
  levels of iron: reduced levels
  mean FEV1: increased
[5]; human, in vivo
  mean levels of carbonyls: lower mean levels
  mean levels of chlorotyrosine: lower mean levels
  myeloperoxidase activity: reduced
[6]; [10]
  gene expression of inflammatory markers (qPCR, sputum): mean reduction
  inflammatory markers in sputum: reduction
[6]; especially MMP-9 and TIMP-1
  balance between MMPs and TIMPs: change in the balance
[7]
  bronchoconstriction: concentration-dependent bronchoconstriction
[8]; 2, 6 and 10 weeks after start of treatment, FIG. 26
  mean change in FEV1: clear improvement in lung function
[8]; mg EDTA/kg body weight, FIG. 27
  dose dependence of effect on lung function: dose-dependent effect on lung function
[9]; [10]
  inflammatory markers in sputum: reduction
[9]; compared with control patients
  FEV1: increase
  bacterial load in sputum: reduction
[9]; especially MMP-9 and TIMP-1
  balance between MMPs and TIMPs: change in the balance
[9]; human, in vivo
  iron levels in sputum: decrease
